# According to patent US10434112B2, “Use of agonists of formyl peptide receptor 2 for treating dermatological diseases” (Allergan, Inc., priority 2013, dated 2019):
# Target: human FPR2 receptor (Homo sapiens (Human), UniProt P25090)
# Assay: FLIPR Ca+2 response in HEK-Gα16 cells stably expressing the human FPR2 receptor
# Assay type: cell-based
# Set-up: FPR2 (% eff): unit not given here
# Conditions: Table 4
# Procedure, shortened: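 HEK-Gα16 cells stably expressing human FPR2, loaded with 2 μM Fluo-4 in HBSS/20 mM HEPES for 40 min at 37° C., then washed. Ligands added in HBSS/Hepes and Ca+2 responses recorded on FLIPR in relative fluorescence units.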
# human FPR2 receptor, sequence (P25090 whole entry): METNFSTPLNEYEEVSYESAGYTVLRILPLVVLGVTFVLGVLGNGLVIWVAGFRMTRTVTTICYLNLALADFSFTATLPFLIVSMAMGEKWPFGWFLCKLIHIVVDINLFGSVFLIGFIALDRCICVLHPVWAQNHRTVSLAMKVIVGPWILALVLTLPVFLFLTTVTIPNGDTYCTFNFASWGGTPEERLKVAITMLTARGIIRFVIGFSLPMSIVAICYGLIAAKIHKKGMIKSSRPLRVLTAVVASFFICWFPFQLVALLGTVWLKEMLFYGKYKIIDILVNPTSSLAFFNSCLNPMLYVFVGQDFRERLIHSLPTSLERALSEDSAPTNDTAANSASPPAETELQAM
row,EC50 [nM],SMILES
1,7,"CSc1ccc(NC(=O)C2C(C(=O)O)C3CCC2C32CC2)cc1 (stereo not shown) [Compound 29, 3-{[4-(methylsulfanyl)phenyl]carbamoyl}spiro[bicyclo[2.2.1]heptane-7,1′-cyclopropane]-2-carboxylic acid]"
2,1.1,"CC(C)C[C@H](NC(=O)Nc1ccc(Br)cc1)C(=O)NCC(N)=O [Compound 77, (2S)-N-(2-amino-2-oxoethyl)-2-{[(4-bromophenyl)carbamoyl]amino}-4-methylpentanamide]"

# Same assay, conditions: Table 4; value in brackets, given mostly as fraction
row,FPR2 (% eff),SMILES
1,0.70,"CSc1ccc(NC(=O)Nc2ccc3c(c2)C(=O)N(CCCN)C(c2ccc(C#N)cc2)C3)cc1 (stereo not shown) [Compound 16, 1-[2-(3-aminopropyl)-3-(4-cyanophenyl)-1-oxo-1,2,3,4-tetrahydroisoquinolin-7-yl]-3-[4-(methylsulfanyl)phenyl]urea]"
2,1.0,"CC1(CCc2cccc(F)c2)NC(=O)N(NC(=O)Nc2ccc(Br)cc2)C1=O (stereo not shown) [Compound 83, 1-(4-bromophenyl)-3-{4-[2-(3-fluorophenyl)ethyl]-4-methyl-2,5-dioxoimidazolidin-1-yl}urea]"
3,0.97,"CC[C@H](C)[C@H](NC(=O)Nc1ccc(Br)cc1)C(=O)NCC(C)=O [Compound 63, (2S,3S)-2-{[(4-bromophenyl)carbamoyl]amino}-3-methyl-N-(2-oxopropyl)pentanamide]"
4,1.0,"CCC[C@H](NC(=O)[C@H](CC(C)C)NC(=O)Nc1ccc(Br)cc1)C(=O)OC(C)(C)C [Compound 100, tert-butyl (2S)-2-{[(2S)-2-{[(4-bromophenyl)carbamoyl]amino}-4-methylpentanoyl]amino} pentanoate]"
5,1.0,"O=C(Nc1ccc(Br)cc1)NN1C(=O)NC(C2CC2)(C2CC2)C1=O [Compound 65, 1-(4-bromophenyl)-3-(4,4-dicyclopropyl-2,5-dioxoimidazolidin-1-yl)urea]"
6,0.97,"O=C(O)C1C(C(=O)Nc2ccc(Br)cc2)C2C=CC1C21CC1 (stereo not shown) [Compound 12, 3-[(4-bromophenyl)carbamoyl]spiro [bicyclo[2.2.1]heptane-7,1′-cyclopropane]-5-ene-2-carboxylic acid]"
7,0.92,"CCC1(CCc2ccccc2C(=O)OC)NC(=O)N(NC(=O)Nc2ccc(Br)cc2)C1=O (stereo not shown) [Compound 141, methyl 2-[2-(1-{[(4-bromophenyl)carbamoyl]amino}-4-ethyl-2,5-dioxoimidazolidin-4-yl)ethyl]benzoate]"
8,0.85,"CSc1ccc(NC(=O)C2C(C(N)=O)C3CCC2C3(C)C)cc1 (stereo not shown) [Compound 37, 7,7-dimethyl-N-[4-(methylsulfanyl)phenyl]bicyclo [2.2.1]heptane-2,3-dicarboxamide]"
9,0.89,"O=C(Nc1ccc(Br)cc1)NC(Cc1ccccc1)C(=O)NC1CCCCNC1=O (stereo not shown) [Compound 10, 2-{[(4-bromophenyl)carbamoyl]amino}-N-(2-oxoazepan-3-yl)-3-phenylpropanamide]"
10,0.96,"CSc1ccc(NC(=O)C2C(C(=O)O)C3CCC2C32CC2)cc1 (stereo not shown) [Compound 29, 3-{[4-(methylsulfanyl)phenyl]carbamoyl}spiro[bicyclo[2.2.1]heptane-7,1′-cyclopropane]-2-carboxylic acid]"
11,0.94,"N#Cc1ccc(C2Cc3ccc(NC(=O)Nc4ccc(I)cc4)cc3C(=O)N2CCCN)cc1 (stereo not shown) [Compound 43, 1-[2-(3-aminopropyl)-3-(4-cyanophenyl)-1-oxo-1,2,3,4-tetrahydroisoquinolin-7-yl]-3-(4-iodophenyl)urea]"
12,1.0,"CCC[C@H](NC(=O)Nc1ccc(Br)cc1)C(=O)O [Compound 70, (2S)-2-{[(4-bromophenyl)carbamoyl]amino}pentanoic acid]"
13,0.91,"CCC1(CCc2ccccc2)NC(=O)N(NC(=O)Nc2ccc(Br)cc2F)C1=O (stereo not shown) [Compound 69, 1-(4-bromo-2-fluorophenyl)-3-[4-ethyl-2,5-dioxo-4-(2-phenylethyl)imidazolidin-1-yl]urea]"
14,0.77,"CC(C)C[C@H](NC(=O)Nc1ccc(Br)cc1)C(=O)O [Compound 9, (2S)-2-{[(4-bromophenyl)carbamoyl]amino}-4-methylpentanoic acid]"
15,0.80,"CC(=O)c1ccc(NC(=O)Nc2ccc3c(c2)C(=O)N(CCc2c[nH]cn2)C(c2ccc(C#N)cc2)C3)cc1 (stereo not shown) [Compound 13, 1-(4-acetylphenyl)-3-{3-(4-cyanophenyl)-2-[2-(1H-imidazol-4-yl)ethyl]-1-oxo-1,2,3,4-tetrahydroisoquinolin-7-yl}urea]"
16,0.91,"C[S+]([O-])c1ccc(NC(=O)Nc2ccc3c(c2)C(=O)N(CCCNC(=O)OC(C)(C)C)[C@@H](c2ccc(C#N)cc2)C3)cc1 (stereo partly drawn) [Compound 40, (+) tert-butyl {3-[(3R)-3-(4-cyanophenyl)-7-({[4-(methylsulfinyl)phenyl]carbamoyl}amino)-1-oxo-3,4-dihydroisoquinolin-2(1H)-yl]propyl}carbamate]"
17,0.98,"CC(C)C1(CC(=O)NCCO)NC(=O)N(NC(=O)Nc2ccc(Br)cc2F)C1=O (stereo not shown) [Compound 148, 2-[1-{[(4-bromo-2-fluorophenyl)carbamoyl]amino}-2,5-dioxo-4-(propan-2-yl)imidazolidin-4-yl]-N-(2-hydroxyethyl)acetamide]"
18,1.00,"O=C(O)C1C(C(=O)Nc2ccc(I)cc2)C2C=CC1C21CC1 (stereo not shown) [Compound 11, 3-[(4-iodophenyl)carbamoyl]spiro [bicyclo[2.2.1]heptane-7,1′-cyclopropane]-5-ene-2-carboxylic acid]"
19,0.86,"CCC[C@H](NC(=O)Nc1ccc(Br)cc1)C(=O)NCC(=O)OC [Compound 72, methyl {[(2S)-2-{[(4-bromophenyl)carbamoyl]amino}pentanoyl]amino}acetate]"
20,0.91,"CC[C@H](C)[C@H](NC(=O)Nc1ccc(Br)cc1)C(=O)NCC(N)=O [Compound 60, (2S,3S)-N-(2-amino-2-oxoethyl)-2-{[(4-bromophenyl)carbamoyl]amino}-3-methylpentanamide]"
21,0.97,"CSc1ccc(NC(=O)Nc2ccc3c(c2)C(=O)N(CCCN)[C@@H](c2ccc(C#N)cc2)C3)cc1 [Compound 36, (+)1-[(3R)-2-(3-aminopropyl)-3-(4-cyanophenyl)-1-oxo-1,2,3,4-tetrahydroisoquinolin-7-yl]-3-[4-(methylsulfanyl)phenyl]urea]"
22,1.0,"CC(C)C[C@H](NC(=O)Nc1ccc(Br)cc1)C(=O)NCC(N)=O [Compound 77, (2S)-N-(2-amino-2-oxoethyl)-2-{[(4-bromophenyl)carbamoyl]amino}-4-methylpentanamide]"
23,1.0,"CC(C)C[C@H](NC(=O)Nc1ccc(Br)cc1)C(=O)N[C@H](C(N)=O)C(C)C [Compound 92, (2S)-N-[(2S)-1-amino-3-methyl-1-oxobutan-2-yl]-2-{[(4-bromophenyl)carbamoyl]amino}-4-methylpentanamide]"
24,1.0,"CS(=O)(=O)c1ccc(NC(=O)Nc2ccc3c(c2)C(=O)N(CCc2c[nH]cn2)C(c2ccc(F)cn2)C3)cc1 (stereo not shown) [Compound 25, 1-{3-(5-fluoropyridin-2-yl)-2-[2-(1H-imidazol-4-yl)ethyl]-1-oxo-1,2,3,4-tetrahydroisoquinolin-7-yl}-3-[4-(methylsulfonyl)phenyl]urea]"
25,0.91,"CCC[C@H](NC(=O)Nc1ccc(Br)cc1)C(=O)NCC(=O)O [Compound 2, {[(2S)-2-{[(4-bromophenyl)carbamoyl]amino}pentanoyl]amino}acetic acid]"

row,SMILES,FPR2 (% eff)
1,"CCOP(=O)(O)CNC(=O)[C@H](CC(C)C)NC(=O)Nc1ccc(Br)cc1 [Compound 105, ethyl hydrogen ({[(2S)-2-{[(4-bromophenyl)carbamoyl]amino}-4-methylpentanoyl]amino}methyl)phosphonate]",0.88
